US20190216707A1, “COMPOSITION FOR PREVENTING HAIR LOSS AND PROMOTING HAIR GROWTH, COMPRISING PHYTOESTROGEN AS AN ACTIVE INGREDIENT” (STEMORE CO., LTD., priority 2016, published 2019)

What was measured:
[1] = tested on: immortalized dermal papilla cells (I-DPCs); experiment: Proliferation of immortalized dermal papilla cells (Incucyte, phase object confluence); assay type: cell-based, Human; details: FIGS. 1A to 1D; for effect on the proliferation of I-DPCs (phase object confluence, %): 0.1 μM, 1 μM or 10 μM, cultured for 72 hours; for proliferation of I-DPCs: concentration of 1 μM to 10 μM
Experimental: Human-derived immortalized dermal papilla cells (I-DPCs; donated by Professor Sungyoung Kwan of the College of Medicine at Kyungpook National University; Shin, Seung-Hyun, et al. “Establishment and characterization of an immortalized human dermal papilla cell line.” BMB reports 44.8 (2011): 512-516.) were cultured in Follicle Dermal Papilla Cell Growth Medium supplemented with 10% fetal bovine serum […] and penicillin-streptomycin antibiotics for 3 days to prepare a dermal papilla cell line. On day 3 of culture, the cells cultured in the culture dish were transferred to a 96-well plate, and when the cells were attached to the bottom of each well, each well was treated with DO-10B, DO-14, DO-17, and DO-20 at a concentration of 10 μM and cultured for 48 hours.
In particular, the I-DP cell line was prepared by culturing under the same conditions as in Example <2-1>, and the cells were treated with DO-10B, DO-14, DO-17, and DO-20 at a concentration of 0.1 μM, 1 μM, or 10 μM in a cell culture medium, and then cultured for a total of 72 hours. At 0, 12, 24, 36, 48, 60, and 72 hours after the start of culture, the degree of saturation of cells attached to the bottom of each well (phase object confluence, %) was confirmed using the Incucyte System™.

C3H/HeNCrljOri mice = experiment: Hair growth promotion on the hair-removed back of mice; assay type: in vivo; details: PBS containing 1 μM compound subcutaneously injected, 2 weeks; for hair cycle induction / hair growth, visually confirmed, compared to the non-administered group: FIG. 2; for hair weight compared with the minoxidil-administered control / hair weight relative to the non-administered control: FIG. 3
Description: In particular, to confirm the effects of DO-10B, DO-14, DO-17, and DO-20 on hair growth promotion when applied and subcutaneously administered, 6-week-old male C3H/HeNCrljOri mice were purchased and divided into a negative control, a positive control (minoxidil-treated group), and groups treated with DO-10B, DO-14, DO-17, and DO-20 to be used for experiments. To confirm a hair growth effect in the mice, when the mice became 6 weeks of age, first, the hair of the back of each mouse was removed using a clipper.
To confirm the effects of DO-10B, DO-14, DO-17, and DO-20 on hair growth promotion when subcutaneously injected, PBS containing 1 μM DO-10B, DO-14, DO-17, and DO-20 was subcutaneously injected into the hair-removed backs of mice at a daily cycle of 2 to 3 times, and the mice were raised for a total of 2 weeks. After the end of the rearing period, the hair of the back of each mouse was removed again using a mouse clipper, and the weight of the collected hair was measured to compare the hair weights of the non-administered group and the minoxidil-administered group.

Row | Compound | effect on the proliferation of I-DPCs (phase object confluence, %) [1] | proliferation of I-DPCs [1] | hair cycle induction (C3H/HeNCrljOri mice) | hair growth, visually confirmed, compared to the non-administered group (C3H/HeNCrljOri mice) | hair weight compared with the minoxidil-administered control (C3H/HeNCrljOri mice) | hair weight relative to the non-administered control (C3H/HeNCrljOri mice)
1 | (3R)-5′-methoxyvestiol [DO-14] | concentration-dependent manner | significantly promoted | induced to the anagen phase | significant hair growth | equal to or greater than that of the minoxidil-administered control | about two-fold or more
2 | COc1cc2c(cc1O)[C@@H]1COc3cc(O)ccc3[C@@H]1O2 [DO-17, (6aR, 11aR)-3,8-dihydroxy-9-methoxypterocarpan] | concentration-dependent manner | significantly promoted | induced to the anagen phase | significant hair growth | equal to or greater than that of the minoxidil-administered control | about two-fold or more
3 | COc1ccc2c(c1)OC1c3ccc(O)cc3OCC21 (stereo not drawn) [DO-20, 3-hydroxy-9-methoxypterocarpan] | concentration-dependent manner | significantly promoted | induced to the anagen phase | significant hair growth | equal to or greater than that of the minoxidil-administered control | about two-fold or more
4 | violanone [DO-10B] | concentration-dependent manner | significantly promoted | induced to the anagen phase | significant hair growth | equal to or greater than that of the minoxidil-administered control | about two-fold or more
